{
  "source": "patent US20110173718A1",
  "about": "“HERBICIDE TOLERANT PLANTS” (SYNGENTA CROP PROTECTION, INC., priority 2008, published 2011)",
  "type_in_all_cases": "in vivo",
  "key": {"tobacco leaf explants": {"tested_on": "tobacco leaf explants", "assay": "Tobacco leaf explants plated on NBM medium with haloxydine", "details": "1 mg/1 haloxydine", "procedure": "To roughly evaluate comparative levels of ectopic HST expression independent PCR positive tobacco shoots have young leaves removed, cut into 1 cm squares and plated onto NBM medium incorporating 1 mg/1 haloxydine. These leaf explants produce callus and ultimately regenerated shoots."}, "[1]": {"tested_on": "Tobacco (var Samsun) plantlets in agar", "assay": "HST + HPPD herbicide effects on tobacco seedlings in agar", "details": "for % Injury, plus Mesotrione (0.004 ppm) (EXPECTED): Colby expected; for % Injury, plus Mesotrione (0.004 ppm) (EXPECTED) / % Injury, plus Mesotrione (0.004 ppm) (OBSERVED) / % Injury (bleaching), haloxydine only / % Injury (O − E): agar, 7 DAT; for % Injury (O − E): observed minus expected", "procedure": "Tobacco (var Samsun) plantlets germinated aseptically in agar made up in 1/3 strength Murashige and Skoog salts medium along with various doses of herbicide. Bleaching damage to emerging plantlets is assessed 7 DAT. The plantlets are kept covered under clear perspex and grown at 18° C. (night) and 24° C. (day) under a 16 h day (˜500-900 umol/m^2), 8 h darkness regime. Herbicide affected plantlets are bleached white and grow less. Synergistic/antagonistic responses are calculated using the Colby formula (Colby, S. R. (Calculating synergistic and antagonistic responses of herbicide Combinations”, Weeds, 15, p. 20-22, 1967)."}, "[2]": {"tested_on": "Arabidopsis HST transgenic tobacco plants", "assay": "Glasshouse spray test, Arabidopsis HST transgenic tobacco", "details": "25 gai/ha; D2 line (Arabidopsis HST, segregating T1), individual plants"}, "[3]": {"details": "haloxydine 0.3 ppm + mesotrione 0.004 ppm"}, "[4]": {"details": "haloxydine 0.6 ppm + mesotrione 0.004 ppm"}, "[5]": {"details": "haloxydine 1.2 ppm + mesotrione 0.004 ppm"}, "[6]": {"details": "haloxydine 2.4 ppm + mesotrione 0.004 ppm"}, "[7]": {"details": "haloxydine 4.7 ppm + mesotrione 0.004 ppm"}, "[8]": {"details": "haloxydine 9.4 ppm + mesotrione 0.004 ppm"}, "[9]": {"details": "haloxydine 18.8 ppm + mesotrione 0.004 ppm"}, "[10]": {"details": "haloxydine 37.5 ppm + mesotrione 0.004 ppm"}},
  "note": "Values joined by “and” are separate entries in the source; they are usually repeats but may differ in a detail not shown here. Equal values may be shown once.",
  "data": [
    {"smiles": "Oc1c(Cl)c(F)nc(F)c1Cl", "note": "[Compound 1.1, haloxydine]", "values": [
      {"measurement": "callus and shoot regeneration", "setting": "tobacco leaf explants; explants over expressing HST", "result": "green callus and shoots"},
      {"measurement": "callus and shoot regeneration", "setting": "tobacco leaf explants; untransformed explants or transformants with limited HST expression", "result": "bleached callus and stunted bleached shoots that ultimately died"},
      {"measurement": "% Injury, plus Mesotrione (0.004 ppm) (EXPECTED)", "setting": "[1]; [3]", "result": 41.5, "unit": "%"},
      {"measurement": "% Injury, plus Mesotrione (0.004 ppm) (EXPECTED)", "setting": "[1]; [4]", "result": 48, "unit": "%"},
      {"measurement": "% Injury, plus Mesotrione (0.004 ppm) (EXPECTED)", "setting": "[1]; [5]", "result": 58, "unit": "%"},
      {"measurement": "% Injury, plus Mesotrione (0.004 ppm) (EXPECTED)", "setting": "[1]; [6]", "result": 67.5, "unit": "%"},
      {"measurement": "% Injury, plus Mesotrione (0.004 ppm) (EXPECTED)", "setting": "[1]; [7]", "result": 80, "unit": "%"},
      {"measurement": "% Injury, plus Mesotrione (0.004 ppm) (EXPECTED)", "setting": "[1]; [8]", "result": 94, "unit": "%"},
      {"measurement": "% Injury, plus Mesotrione (0.004 ppm) (EXPECTED)", "setting": "[1]; [9]", "result": 100, "unit": "%"},
      {"measurement": "% Injury, plus Mesotrione (0.004 ppm) (EXPECTED)", "setting": "[1]; [10]", "result": 100, "unit": "%"},
      {"measurement": "effect of adding a low dose of mesotrione on the herbicidal effect", "setting": "[1]; agar grown tobacco plantlets", "result": "synergises"},
      {"measurement": "% Injury, plus Mesotrione (0.004 ppm) (OBSERVED)", "setting": "[1]; [3]", "result": 50, "unit": "%"},
      {"measurement": "% Injury (bleaching), haloxydine only", "setting": "[1]; haloxydine 0.3 ppm", "result": 10, "unit": "%"},
      {"measurement": "% Injury, plus Mesotrione (0.004 ppm) (OBSERVED)", "setting": "[1]; [4]", "result": 50, "unit": "%"},
      {"measurement": "% Injury (bleaching), haloxydine only", "setting": "[1]; haloxydine 0.6 ppm", "result": 20, "unit": "%"},
      {"measurement": "% Injury, plus Mesotrione (0.004 ppm) (OBSERVED)", "setting": "[1]; [5]", "result": 70, "unit": "%"},
      {"measurement": "% Injury (bleaching), haloxydine only", "setting": "[1]; haloxydine 1.2 ppm", "result": 35, "unit": "%"},
      {"measurement": "% Injury, plus Mesotrione (0.004 ppm) (OBSERVED)", "setting": "[1]; [6]", "result": 90, "unit": "%"},
      {"measurement": "% Injury (bleaching), haloxydine only", "setting": "[1]; haloxydine 2.4 ppm", "result": 50, "unit": "%"},
      {"measurement": "% Injury, plus Mesotrione (0.004 ppm) (OBSERVED)", "setting": "[1]; [7]", "result": 100, "unit": "%"},
      {"measurement": "% Injury (bleaching), haloxydine only", "setting": "[1]; haloxydine 4.7 ppm", "result": 70, "unit": "%"},
      {"measurement": "% Injury, plus Mesotrione (0.004 ppm) (OBSERVED)", "setting": "[1]; [8]", "result": 100, "unit": "%"},
      {"measurement": "% Injury (bleaching), haloxydine only", "setting": "[1]; haloxydine 9.4 ppm", "result": 90, "unit": "%"},
      {"measurement": "% Injury, plus Mesotrione (0.004 ppm) (OBSERVED)", "setting": "[1]; [9]", "result": 100, "unit": "%"},
      {"measurement": "% Injury (bleaching), haloxydine only", "setting": "[1]; haloxydine 18.8 ppm", "result": 100, "unit": "%"},
      {"measurement": "% Injury, plus Mesotrione (0.004 ppm) (OBSERVED)", "setting": "[1]; [10]", "result": 100, "unit": "%"},
      {"measurement": "% Injury (bleaching), haloxydine only", "setting": "[1]; haloxydine 37.5 ppm", "result": 100, "unit": "%"},
      {"measurement": "% Injury (O − E)", "setting": "[1]; [3]", "result": 8.5, "unit": "%"},
      {"measurement": "% Injury (O − E)", "setting": "[1]; [4]", "result": 2, "unit": "%"},
      {"measurement": "% Injury (O − E)", "setting": "[1]; [5]", "result": 12, "unit": "%"},
      {"measurement": "% Injury (O − E)", "setting": "[1]; [6]", "result": 22.5, "unit": "%"},
      {"measurement": "% Injury (O − E)", "setting": "[1]; [7]", "result": 20, "unit": "%"},
      {"measurement": "% Injury (O − E)", "setting": "[1]; [8]", "result": 6, "unit": "%"},
      {"measurement": "% Injury (O − E)", "setting": "[1]; [9]", "result": 0, "unit": "%"},
      {"measurement": "% Injury (O − E)", "setting": "[1]; [10]", "result": 0, "unit": "%"},
      {"measurement": "% damage at 7 DAT", "setting": "[2]", "result": "55% (2×) and 35% and 65% (3×) and 100% and 30%"}
    ]}
  ]
}
